Columns and labels:
[1] = system: isolated rat hepatic mitochondria; conditions: inhibition of electron transport chain Complex I (rotenone) or Complex II (malonate); cited from earlier work
[2] = humans, dietary supplementation; cited from earlier work
sperm [3] = assay: Sperm concentration (hemocytometer) after betaine supplementation; type: in vivo, mouse
Description: (§1) FIGS. 17A-17D are bar graphs showing the results of betaine supplementation on sperm concentration, motility and mitochondrial function in CHDH+/+ (WT), CHDH+/−, and CHDH−/− (KO) mice. […] Spermatozoa concentration was determined by counting cells using a hemocytometer. Results are presented as mean±SEM, n=9-11 animals per genotype. […] Motility assays were performed by counting the number of progressively motile sperm per total number of sperm in 5 squares of a hemocytometer. The results are presented as the mean % motility±SEM, p<0.001, n=8-9 animals per genotype. […] Absorbance values were normalized to the number of sperm assayed. All assays were performed in duplicate. The value for each animal is the mean of 4 assays (2 cauda epididymii, each assayed in duplicate per animal). Results are presented as the mean±SEM, p<0.05, n=5 animals/group. […] The number of cells that fluoresced red was counted in 5 random fields of vision for each sample and results are expressed as a percent of the total cells in those fields. […]
Eight to 10 week old CHDH^+/+ and CHDH^−/− male mice were anesthetized with Halothane (Henry Schein, Inc.). […] Sperm concentration was determined by counting cells with a hemocytometer. Percent motility was determined by counting the number of progressively motile sperm per total number of sperm present using a hemocytometer. […]

spermatozoa mitochondria [4] = assay: JC-1 staining, mitochondrial membrane potential in sperm after betaine supplementation; type: in vivo, mouse; conditions: JC-1 staining of sperm
Description: as §1, with “animal).” for “animal). Results are presented as the mean±SEM, p<0.05, n=5 animals/group.”
To detect changes in mitochondrial membrane polarization, JC-1 staining was performed on sperm harvested from cauda epididymis (see FIGS. 8-11 and 13). […] 20 μl of each stained sample was examined with a fluorescence microscope (Olympus BX50, Olympus America, Inc., Center Valley, Pa., United States of America) and large band epifluorescence filters. […] Five fields of vision were counted for each sample and results expressed as percent of total cells.

sperm [5] = assay: Sperm motility (progressively motile sperm, hemocytometer) after betaine supplementation via drinking water; type: in vivo, mouse
Description: (§2) FIGS. 17A-17D are bar graphs showing the results of betaine supplementation on sperm concentration, motility and mitochondrial function in CHDH+/+ (WT), CHDH+/−, and CHDH−/− (KO) mice. […] Spermatozoa concentration was determined by counting cells using a hemocytometer. Results are presented as mean±SEM, n=9-11 animals per genotype. […] Motility assays were performed by counting the number of progressively motile sperm per total number of sperm in 5 squares of a hemocytometer. The results are presented as the mean % motility±SEM, p<0.001, n=8-9 animals per genotype. […] Absorbance values were normalized to the number of sperm assayed. All assays were performed in duplicate. The value for each animal is the mean of 4 assays (2 cauda epididymii, each assayed in duplicate per animal). Results are presented as the mean±SEM, p<0.05, n=5 animals/group. […] The number of cells that fluoresced red was counted in 5 random fields of vision for each sample and results are expressed as a percent of the total cells in those fields. Results are presented as mean±SEM, p<0.001, n=5 animals/group.
Eight to 10 week old CHDH^+/+ and CHDH^−/− male mice were anesthetized with Halothane (Henry Schein, Inc.). A V-shaped incision was made beginning at the penis and extending out to the midline of the body. Testis and epididymis were excised from the animal and immediately placed in a 6-well tissue culture dish containing approximately 1 ml of M16 media (Sigma) in a well. All media, plates and tubes used were warmed to 37° C. prior to the dissection. Any plate or tube containing sperm, once isolated, was kept at 37° C. with 5% CO2 for the duration of the experiment. The cauda epididymis was separated from the other structures and then placed in a 24-well plate containing 300 μl of fresh M16 media in each well. The cauda epididymis was then cut several times and the dish was incubated at 37° C. with 5% CO2 for 15 minutes. Sperm concentration was determined by counting cells with a hemocytometer. Percent motility was determined by counting the number of progressively motile sperm per total number of sperm present using a hemocytometer. “Progressively motile sperm” refers to sperm that swim forward in a somewhat straight line. Sperm that were moving, but that were swimming in circles were classified as non-progressively motile.
To determine whether sperm motility can be restored through betaine supplementation, CHDH−/− mice were given drinking water supplemented to 2% betaine for 38 days.

spermatozoa mitochondria [6] = assay: MTT assay of mitochondrial function in sperm after betaine supplementation; type: in vivo, mouse
Description: as §2
Sperm were isolated from the cauda epididymis as described above. An MTT (3-(4,5-dimethyl thiazol-2-yl)-2,5-diphenyl tetrazolium bromide) assay was conducted to measure mitochondrial function (Nasr-Esfahani, Aboutorabi et al. 2002) with the following modification: rather then visualizing positive MTT staining microscopically, MTT assays were conducted using a commercially available MIT assay kit (CellTiter 96 Non-radioactive Cell Proliferation Assay, Promega, Madison, Wis., United States of America) and cells were solubolized with the provided Solubolization/Stop Mix. 100 μL of isolated sperm were incubated in F10 media (Invitrogen Inc., Carlsbad, Calif., United States of America) in a 96-well plate with 15 μL of MTT solution at 37° C./5% CO2 for 2 hours. Following solubolization, the absorbance of each sample was read at a wavelength of 562 nm using a BIOTEK® plate reader (BioTek Instruments Inc., Winooski, Vt., United States of America). Absorbance was normalized to the number of sperm assayed.

Structure (SMILES)	choline-stimulated mitochondrial respiration [1]	plasma tHcy concentrations [2]	effect on sperm concentration (sperm [3]; CHDH+/+, CHDH+/- or CHDH-/- mice, betaine supplementation)	number of sperm produced (sperm [3]; males of any CHDH genotype, betaine via drinking water for 42 days)	effect on inner mitochondrial membrane potential (ΔΨm) (spermatozoa mitochondria [4])	effect on motility of spermatozoa (sperm [5]; CHDH+/+ or CHDH+/- spermatozoa, betaine via drinking water for 42 days)	sperm motility (sperm [5]; CHDH+/- mice, betaine supplementation)	asthenospermic phenotype (sperm [5]; CHDH-/- males, betaine via drinking water for 42 days)	progressive sperm motility (sperm [5]; CHDH-/- mice, drinking water supplemented to 2% betaine for 38 days)	decrease of MTT conversion (spermatozoa mitochondria [6]; CHDH+/+ sperm, betaine supplementation) [%]	MTT conversion compared to untreated CHDH+/+ sperm (spermatozoa mitochondria [6]; CHDH+/+ spermatozoa, betaine via drinking water for 42 days)	amount of MTT reduction (spermatozoa mitochondria [6]; CHDH+/- or CHDH-/- spermatozoa, betaine supplementation)	changes in mitochondrial function, as measured by MTT assay and JC-1 staining (spermatozoa mitochondria [6]; betaine via drinking water for 42 days, exception CHDH+/+ MTT conversion)
O=C(O)CC(=O)O [malonate]	decreases												
C=C(C)[C@H]1Cc2c(ccc3c2O[C@@H]2COc4cc(OC)c(OC)cc4[C@@H]2C3=O)O1 [rotenone]	decreases												
C[N+](C)(C)CC(=O)O [betaine]		effective in lowering	did not have any effect	did not alter	no effect	nor was there any effect	unaffected	improved, but not fully rescued	approximately 30%	67	significantly decreased	did not change	No changes
